According to US12178838B2, “Synthetic neuromodulatory peptides” (Lactocore, Inc., priority 2019, dated 2024):
Like-named read-outs stand apart in the source and are kept apart here.

Tests used:
zebrafish (Danio rerio) = assay: Light/dark box test in zebrafish; format: in vivo; conditions: ip
Description: The tested substances were injected into the zebrafish intraperitoneally (ip) using an insulin syringe (0.5 ml, 30 g) 10 minutes before the test. The saline solution (0.9% NaCl) was used as a solvent. Anesthesia and immobilization of the animals were achieved by placing them in water at a temperature of 10° C. Control group fish received intraperitoneal injections of an equivalent volume of solvent, also after going through a pre-cooling procedure.
A base, back, and side walls of the aquarium were made of matte black plastic; the front panel (shorter wall) was made of transparent Plexiglas. The setup for the Light/Dark preference test consisted of three main parts: a launch compartment, a light compartment made of white plastic, and a dark compartment made of black plastic. The bright lighting in these tests was provided by a lamp on a stand (LED lamp PL, 11 W, light flux≈600 Lm, about 500 Lx directly above the water surface), which was attached to the upper part of the aquarium.
The light/dark box (LDB) test was performed as described in Maximino et al., 2011. The zebrafish was placed in a light compartment of an LDB using a net, the camera was switched on simultaneously, and the behavior of the zebrafish was recorded for 5 minutes. The video was processed using RealTimer (OpenScience). During the processing of records, the residence time and the number of visits to the light and dark compartments of the test setup were recorded, as well as the latent period of visiting both compartments.

[1] = system: Wistar rats after chronic unpredictable mild stress; assay: CUMS model: Elevated Plus Maze test; format: in vivo
Description: (§1) During stress, the animals were placed in individual cells and exposed to stressful conditions each day for 26 days. Two stressors were used daily, applied in the following order: • Day 1. 10 am-6 pm, rats were placed in a cold room for an hour. From 6 PM to 10 am the lights were turned on and off every 2 hours. • Day 2. 10 am-6 pm, cage tilted to 45°. From 6 PM to 10 am water deprivation. • Day 3. 10 am-6 pm, stroboscopic light. From 6 PM to 10 am the light was left on overnight. • Day 4. 10 am-6 pm, wet bedding. From 6 PM to 10 am the animals were put in a small mouse cage. • Day 5. 10 am-6 pm, no bedding. From 6 PM to 10 am the lights were turned on and off every 2 hours. • Day 6. 10 am-6 pm, a new rat was placed in the cage (6-month-old). From 6 PM to 10 am the light was left on overnight. • Day 7. 10 am-6 pm, white noise. From 6 PM to 10 am a stroboscopic light was turned on at night. • Day 8-26. Repetition of previously used stressors in the specified sequence.
Experimental substances were administered daily starting from the 58-59 day of the experiment. The administration took place 30 minutes before the start of behavioral testing. On days when there were no tests, the substances were administered in the morning.
The Elevated Plus Maze test was used to assess the level of anxiety, motor, and exploratory activity of laboratory animals. The apparatus consisted of two closed and two open arms opposite to each other (arm's length 45 cm) with the height of the sides of the closed arm −10 cm. The entire installation was raised on a stand 70 cm above the base. Rats were placed in the center of the maze with their heads facing the open arm. Within 5 minutes the number of exits to open arms and time spent in them, the number of transitions between arms, the time of rest, the duration and number of grooming acts, the number of stretch-attend postures into the open arms of the maze, and the number of rears were recorded. Normally, rodents tend to stay in the dark arms.

[2] = system: Wistar rats after chronic unpredictable mild stress; assay: CUMS model: Porsolt forced swimming test; format: in vivo; conditions: FQSE 0.05 mg/kg i.n.; Diazepam 0.5 mg/kg i.p.; 18 injections
Description: as §1, with “sequence. […]” for “sequence.”
The forced swim test is a rodent behavioral test used for the evaluation of antidepressant drugs, antidepressant efficacy of new compounds, and experimental manipulations that are aimed at rendering or preventing depressive-like states. […] In the last 6 minutes, the duration of active (vigorous movement of all limbs) and passive (weak strokes of the hind limbs) swimming and immobility duration were recorded. […]

[3] = molecular target: FQSE (SEQ ID NO:10)-specific binding sites in the rat cortex; assay: Radioligand analysis with [3H] FQSE on rat cortex membranes
Description: After decapitation, the tissues were immediately frozen in liquid nitrogen and stored in a low-temperature refrigerator at −80° C. On the day of the experiment, brain tissue (cortex, about 300 mg) was homogenized in a Teflon-glass Potter homogenizer 1:25 W:V in the buffer (50 mM Tris-HCl, pH 7.4). The homogenate was centrifuged at 40,000 g for 20 min. The obtained precipitate was homogenized in a buffer (50 mM Tris-HCl; pH=7.4) and centrifuged again at 40,000 g for 20 min. A similar procedure was performed again. The precipitate was resuspended in 15 ml of the same buffer and used for the radioligand analysis.
The incubation mixture (final volume 0.5 ml) contained 50 μl […]
At the end of the incubation, the samples were filtered through Ge/C glass fiber filters (Whatman) previously moistened with 0.3% polyethyleneimine for 2 hours at room temperature. Each tube was washed twice with cold buffer, then the filters were washed twice with the same volume of buffer.
The filters were air-dried and transferred to scintillation vials. Filters were poured with 5 ml of toluene-based scintillation liquid (4 g PPO, 0.2 g POPOP per liter of toluene).
To construct the curves of the radioactive ligand's displacement each concentration of the test substance was taken in 3 replications. […]

Structure (SMILES): CN1C(=O)CN=C(c2ccccc2)c2cc(Cl)ccc21 [Diazepam]
- time spent in the light compartment (zebrafish (Danio rerio); diazepam 5 mg/kg, FQSE 10 mg/kg, WDQV 10 mg/kg): increased dramatically
- number of transitions between the light and dark compartments (zebrafish (Danio rerio); diazepam 10 mg/kg): increase
- time of the first exit (latent period) to the light chamber (zebrafish (Danio rerio); diazepam 10 mg/kg): decrease
- result obtained in EPM (1 administration) ([1]; CUMS, FQSE 0.5 mg/kg, Diazepam): sedative effects
- time spent on the open arms ([1]; Diazepam 0.5 mg/kg i.p., 1 injection, vs stressed animals treated with solvent): increase
- freezing time ([1]; Diazepam 0.5 mg/kg i.p., vs control group): increase of freezing
- immobilization time [2]: did not differ
- IC50 ([3]; read-out: IC50 after different incubation times: 50 min): 52 ± 0.3 µM
- IC50 ([3]; read-out: IC50 after different incubation times: 1 h): 89 ± 0.3 µM
- IC50 ([3]; read-out: IC50 after different incubation times: 1 h 30 min): 95 ± 0.2 µM
- IC50 ([3]; read-out: IC50 for the [3H]-FQSE binding sites in rat cortex membranes): ~100 µM
